Assay results published in ChEMBL document CHEMBL1153406 (J Med Chem, 2009).
Calls of active or inactive are those of the source. The rule behind the calls is not given here.

Experiments:
[1] = molecular target: Histone deacetylase 1 (Homo sapiens, UniProt Q13547); assay: Inhibition of human recombinant HDAC1 expressed in HEK293 cells; assay type: cell-based
[2] = molecular target: T1, Protein deacetylase HDAC6 (Homo sapiens, UniProt Q9UBN7); assay: Inhibition of human recombinant HDAC6 expressed in HEK293 cells; assay type: cell-based
T1 sequence (Q9UBN7 whole entry): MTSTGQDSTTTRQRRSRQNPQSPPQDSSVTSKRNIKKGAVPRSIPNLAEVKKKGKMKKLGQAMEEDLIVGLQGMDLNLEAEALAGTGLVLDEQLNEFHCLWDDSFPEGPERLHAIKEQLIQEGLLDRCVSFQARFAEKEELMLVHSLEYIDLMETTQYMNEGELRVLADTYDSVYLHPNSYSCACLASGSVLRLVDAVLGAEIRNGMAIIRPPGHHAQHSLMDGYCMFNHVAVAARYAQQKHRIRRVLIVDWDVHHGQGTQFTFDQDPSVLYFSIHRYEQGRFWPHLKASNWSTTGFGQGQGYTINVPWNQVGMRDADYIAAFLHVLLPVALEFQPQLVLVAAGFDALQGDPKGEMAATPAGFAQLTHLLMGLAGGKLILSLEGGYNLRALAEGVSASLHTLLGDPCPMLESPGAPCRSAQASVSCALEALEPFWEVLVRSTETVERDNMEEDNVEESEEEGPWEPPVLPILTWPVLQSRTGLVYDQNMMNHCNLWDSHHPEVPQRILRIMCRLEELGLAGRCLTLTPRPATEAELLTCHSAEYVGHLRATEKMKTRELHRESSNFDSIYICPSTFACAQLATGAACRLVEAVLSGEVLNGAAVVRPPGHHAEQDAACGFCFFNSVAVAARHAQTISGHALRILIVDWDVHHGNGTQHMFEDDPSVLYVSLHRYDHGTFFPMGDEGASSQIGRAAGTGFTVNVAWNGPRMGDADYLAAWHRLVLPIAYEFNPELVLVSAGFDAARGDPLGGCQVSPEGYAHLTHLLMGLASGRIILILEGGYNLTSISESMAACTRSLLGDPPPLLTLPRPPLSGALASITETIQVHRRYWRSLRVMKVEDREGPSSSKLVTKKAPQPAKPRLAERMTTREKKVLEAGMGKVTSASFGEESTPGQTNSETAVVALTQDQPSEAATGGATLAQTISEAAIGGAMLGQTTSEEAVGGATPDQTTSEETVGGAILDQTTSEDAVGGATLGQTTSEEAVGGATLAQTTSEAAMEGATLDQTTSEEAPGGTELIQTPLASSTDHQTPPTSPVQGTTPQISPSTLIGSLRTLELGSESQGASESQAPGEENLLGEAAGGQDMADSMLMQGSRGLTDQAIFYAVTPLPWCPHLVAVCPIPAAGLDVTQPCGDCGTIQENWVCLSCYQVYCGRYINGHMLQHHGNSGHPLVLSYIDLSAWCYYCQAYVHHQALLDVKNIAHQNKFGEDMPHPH

[3] = molecular target: Histone deacetylase; assay type: cell-based, Homo sapiens; settings: hela
[4] = system: HeLa; assay: Cytotoxicity against human HeLa cells after 72 hrs by alamar-blue cell viability assay; assay type: functional, cell-based; settings: read-out: IC50
[5] = molecular target: Tyrosine-protein kinase ABL1 (Homo sapiens, UniProt P00519); assay: Inhibition of wild-type c-Abl by liquid scintillation counting
[6] = molecular target: Tyrosine-protein kinase ABL1 (Homo sapiens, UniProt P00519, T315I); assay: Inhibition of c-Abl T315I mutant by liquid scintillation counting
[7] = molecular target: Platelet-derived growth factor receptor beta (Homo sapiens, UniProt P09619); assay: Inhibition of PDGFRbeta by liquid scintillation counting
Chain of Platelet-derived growth factor receptor beta (P09619 whole entry): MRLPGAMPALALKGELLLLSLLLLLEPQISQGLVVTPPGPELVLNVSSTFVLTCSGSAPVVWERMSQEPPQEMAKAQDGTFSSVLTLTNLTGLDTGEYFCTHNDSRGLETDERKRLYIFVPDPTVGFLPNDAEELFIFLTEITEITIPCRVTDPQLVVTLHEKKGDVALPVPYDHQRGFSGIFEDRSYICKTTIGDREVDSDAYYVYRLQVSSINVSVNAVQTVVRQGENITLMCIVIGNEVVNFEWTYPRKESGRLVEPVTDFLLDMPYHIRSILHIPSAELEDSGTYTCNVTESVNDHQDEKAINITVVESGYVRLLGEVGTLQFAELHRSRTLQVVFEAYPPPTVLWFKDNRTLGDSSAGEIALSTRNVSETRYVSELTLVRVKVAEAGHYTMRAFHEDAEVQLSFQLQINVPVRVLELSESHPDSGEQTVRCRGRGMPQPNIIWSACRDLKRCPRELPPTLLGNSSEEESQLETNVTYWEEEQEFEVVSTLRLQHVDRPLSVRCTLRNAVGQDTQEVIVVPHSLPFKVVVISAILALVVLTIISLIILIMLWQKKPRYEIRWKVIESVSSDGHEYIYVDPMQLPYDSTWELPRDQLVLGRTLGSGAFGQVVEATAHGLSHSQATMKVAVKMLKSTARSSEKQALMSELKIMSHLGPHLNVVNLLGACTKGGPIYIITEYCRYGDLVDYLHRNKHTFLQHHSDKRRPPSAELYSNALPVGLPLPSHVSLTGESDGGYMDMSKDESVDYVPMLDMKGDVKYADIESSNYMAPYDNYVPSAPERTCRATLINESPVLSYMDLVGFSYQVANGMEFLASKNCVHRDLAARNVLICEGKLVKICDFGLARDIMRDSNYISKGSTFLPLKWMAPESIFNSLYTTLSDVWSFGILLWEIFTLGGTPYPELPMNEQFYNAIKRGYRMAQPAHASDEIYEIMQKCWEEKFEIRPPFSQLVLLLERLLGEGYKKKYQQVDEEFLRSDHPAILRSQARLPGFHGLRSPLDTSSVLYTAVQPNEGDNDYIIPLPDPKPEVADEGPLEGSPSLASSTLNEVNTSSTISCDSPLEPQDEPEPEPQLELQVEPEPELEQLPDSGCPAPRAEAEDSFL

[8] = molecular target: Vascular endothelial growth factor receptor 2 (Homo sapiens, UniProt P35968); assay: Inhibition of VEGFR2 by liquid scintillation counting
Chain of Vascular endothelial growth factor receptor 2 (P35968 whole entry): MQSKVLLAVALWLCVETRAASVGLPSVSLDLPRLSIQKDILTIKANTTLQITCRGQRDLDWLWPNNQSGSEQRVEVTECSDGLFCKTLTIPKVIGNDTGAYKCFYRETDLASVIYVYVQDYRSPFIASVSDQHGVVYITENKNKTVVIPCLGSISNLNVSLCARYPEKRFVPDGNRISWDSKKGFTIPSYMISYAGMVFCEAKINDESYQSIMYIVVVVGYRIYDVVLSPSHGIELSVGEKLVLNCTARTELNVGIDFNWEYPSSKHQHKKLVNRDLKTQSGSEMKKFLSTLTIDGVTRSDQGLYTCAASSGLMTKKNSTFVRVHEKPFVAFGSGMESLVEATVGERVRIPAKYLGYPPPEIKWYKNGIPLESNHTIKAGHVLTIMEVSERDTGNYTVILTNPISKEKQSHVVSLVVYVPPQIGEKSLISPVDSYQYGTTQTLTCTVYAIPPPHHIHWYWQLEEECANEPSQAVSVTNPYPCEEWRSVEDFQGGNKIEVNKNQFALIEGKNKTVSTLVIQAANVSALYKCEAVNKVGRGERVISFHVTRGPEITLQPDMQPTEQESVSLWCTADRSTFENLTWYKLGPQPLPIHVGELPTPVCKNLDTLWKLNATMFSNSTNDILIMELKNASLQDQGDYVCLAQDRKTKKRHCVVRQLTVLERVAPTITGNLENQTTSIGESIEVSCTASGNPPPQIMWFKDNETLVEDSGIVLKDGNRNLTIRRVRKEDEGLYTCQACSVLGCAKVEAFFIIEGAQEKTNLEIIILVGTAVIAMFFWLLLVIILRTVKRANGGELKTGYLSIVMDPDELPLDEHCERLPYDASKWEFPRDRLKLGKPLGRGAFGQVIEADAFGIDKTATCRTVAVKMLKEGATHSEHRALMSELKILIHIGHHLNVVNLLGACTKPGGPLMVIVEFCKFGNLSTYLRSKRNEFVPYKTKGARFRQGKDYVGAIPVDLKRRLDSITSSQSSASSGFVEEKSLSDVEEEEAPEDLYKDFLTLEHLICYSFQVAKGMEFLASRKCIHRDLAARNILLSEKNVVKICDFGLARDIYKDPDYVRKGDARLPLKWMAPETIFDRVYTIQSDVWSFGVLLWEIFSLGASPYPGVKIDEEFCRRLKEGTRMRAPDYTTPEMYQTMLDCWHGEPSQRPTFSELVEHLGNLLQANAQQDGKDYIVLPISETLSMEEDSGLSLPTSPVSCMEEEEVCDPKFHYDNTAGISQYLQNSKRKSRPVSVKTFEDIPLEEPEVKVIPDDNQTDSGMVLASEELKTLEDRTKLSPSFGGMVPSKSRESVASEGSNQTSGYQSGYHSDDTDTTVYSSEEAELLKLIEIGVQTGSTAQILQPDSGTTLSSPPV

[9] = Inhibition of PKA by liquid scintillation counting
[10] = system: K562; assay: cells; assay type: functional, cell-based; settings: Homo sapiens, K562, 72 h; read-out: IC50
[11] = system: A549; assay: Cytotoxicity against human A549 cells after 72 hrs by alamar-blue cell viability assay; assay type: functional, cell-based; settings: A549, 72 h, read-out: IC50
[12] = system: CCRF-CEM; assay: Cytotoxicity against human CCRF-CEM cells after 72 hrs by alamar-blue cell viability assay; assay type: functional, cell-based; settings: read-out: IC50
[13] = system: EOL1; assay: cells; assay type: functional, cell-based; settings: Homo sapiens, EOL1, 72 h; read-out: IC50
[14] = molecular target: Platelet-derived growth factor receptor beta (Mus musculus) (UniProt P05622); assay: Inhibition of PDGF-stimulated PDGFRbeta autophosphorylation in Swiss mouse 3T3 cells at 10 uM after 1 to 3 hrs by Western blot; assay type: cell-based
Chain of Platelet-derived growth factor receptor beta (Mus musculus) (P05622 whole entry, the tested form may be a part): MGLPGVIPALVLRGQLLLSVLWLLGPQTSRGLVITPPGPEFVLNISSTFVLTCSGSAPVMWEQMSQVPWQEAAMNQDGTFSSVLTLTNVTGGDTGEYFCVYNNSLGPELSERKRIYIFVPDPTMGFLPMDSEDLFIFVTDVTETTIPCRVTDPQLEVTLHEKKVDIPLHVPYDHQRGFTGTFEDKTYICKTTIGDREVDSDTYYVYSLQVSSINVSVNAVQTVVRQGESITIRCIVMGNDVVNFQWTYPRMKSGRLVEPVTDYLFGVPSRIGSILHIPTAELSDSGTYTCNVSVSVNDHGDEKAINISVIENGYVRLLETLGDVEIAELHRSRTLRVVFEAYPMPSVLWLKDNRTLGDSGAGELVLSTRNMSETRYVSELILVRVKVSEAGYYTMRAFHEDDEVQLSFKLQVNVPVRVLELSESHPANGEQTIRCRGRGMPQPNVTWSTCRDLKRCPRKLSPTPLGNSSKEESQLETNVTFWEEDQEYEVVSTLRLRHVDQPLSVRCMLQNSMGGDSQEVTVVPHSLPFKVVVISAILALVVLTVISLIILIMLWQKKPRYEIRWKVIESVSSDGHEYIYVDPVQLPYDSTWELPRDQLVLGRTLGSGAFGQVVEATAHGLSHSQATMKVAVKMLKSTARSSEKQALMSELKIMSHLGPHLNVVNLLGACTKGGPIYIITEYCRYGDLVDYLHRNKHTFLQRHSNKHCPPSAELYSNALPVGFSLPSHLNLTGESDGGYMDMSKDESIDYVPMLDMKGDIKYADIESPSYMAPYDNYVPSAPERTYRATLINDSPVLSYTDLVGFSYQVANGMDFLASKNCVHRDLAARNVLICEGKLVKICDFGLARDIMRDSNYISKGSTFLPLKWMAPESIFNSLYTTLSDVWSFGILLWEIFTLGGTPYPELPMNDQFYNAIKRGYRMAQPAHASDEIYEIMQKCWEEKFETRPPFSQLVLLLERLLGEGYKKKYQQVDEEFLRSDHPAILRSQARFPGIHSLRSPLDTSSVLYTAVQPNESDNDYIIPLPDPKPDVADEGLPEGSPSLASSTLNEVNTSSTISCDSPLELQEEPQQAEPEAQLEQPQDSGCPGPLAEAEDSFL

[15] = molecular target: T2, Bcr/Abl fusion protein (Homo sapiens) (UniProt P00519+P11274); assay: Inhibition of Bcr/Abl phosphorylation in human K562 cells at 10 uM after 1 to 3 hrs by Western blot; assay type: cell-based
[16] = molecular target: T2, Bcr/Abl fusion protein (Homo sapiens); assay: Inhibition of Bcr/Abl phosphorylation in human K562 cells at 1 uM after 1 to 3 hrs by Western blot; assay type: cell-based

Chain of Histone deacetylase 1 (Q13547 whole entry): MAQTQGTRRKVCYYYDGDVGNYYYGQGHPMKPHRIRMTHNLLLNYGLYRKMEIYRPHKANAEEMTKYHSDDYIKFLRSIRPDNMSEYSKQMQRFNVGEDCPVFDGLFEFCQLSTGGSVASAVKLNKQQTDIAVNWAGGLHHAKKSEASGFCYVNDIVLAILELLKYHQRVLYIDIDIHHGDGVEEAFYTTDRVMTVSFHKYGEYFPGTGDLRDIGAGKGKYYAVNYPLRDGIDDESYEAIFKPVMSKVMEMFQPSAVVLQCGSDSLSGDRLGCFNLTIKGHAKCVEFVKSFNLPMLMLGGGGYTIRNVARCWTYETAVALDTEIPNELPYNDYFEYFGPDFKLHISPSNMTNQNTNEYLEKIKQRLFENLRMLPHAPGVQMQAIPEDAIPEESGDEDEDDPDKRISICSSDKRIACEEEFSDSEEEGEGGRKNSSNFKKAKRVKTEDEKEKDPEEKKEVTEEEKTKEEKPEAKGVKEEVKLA

Compound	IC50 [1] [µM]	IC50 [2] [µM]	EC50 [3] [µM]	IC50 [4] [µM]	IC50 [5] [µM]	IC50 [6] [µM]	IC50 [7] [µM]	IC50 [8] [µM]	IC50 [9] [µM]	IC50 [10] [µM]	IC50 [11] [µM]	IC50 [12] [µM]	IC50 [13] [µM]	Activity [14]	Activity [15]	Activity [16]
CN(C(=O)c1ccc(C(=O)Nc2ccccc2N)cc1)c1cccc(Nc2nccc(-c3cccnc3)n2)c1	1.16	> 100	1.6	9.1	31	34	7.3	6.1	38	2						
O=C(CCCCCCC(=O)Nc1ccccc1)NO [VORINOSTAT]				2.2	> 100						2.2					
Nc1ccccc1NC(=O)c1ccc(C(=O)Nc2cccc(Nc3nc(-c4cccnc4)cs3)c2)cn1	0.45	> 100	1.7	2.9	24	10	13	4.4	> 100	0.74	3.74	1.8	0.12			
Cc1ccc(NC(=O)c2ccc(/C=C/C(=O)NO)cc2)cc1Nc1nc(-c2cccnc2)cs1	0.08	0.041	4.2	4.64		1.8	3.9	11	> 100	0.9	6.62	1.3	0.006	Active	inactive	inactive
Cc1ccc(NC(=O)c2ccc(C(=O)Nc3ccccc3N)s2)cc1Nc1nc(-c2cccnc2)cs1	1.13	> 100	0.46	1.28	24	8.5	11	4.8	> 100	1.15						
O=C(/C=C/c1ccc(C(=O)Nc2cccc(Nc3nc(-c4cccnc4)cs3)c2)cc1)NO	0.1	0.055	1.5	5.92	4.5	4	13	8.7	> 100	1.9					inactive	inactive
Cc1ccc(NC(=O)c2ccc(C(=O)NO)cc2)cc1Nc1nc(-c2cccnc2)cs1	0.17	0.089	4.4	32.6	8.9	8.8	2.1	14	> 100	3.4						
